Laboratory results taken from patent EP0103381B1, “Substituted anthra(1,9-cd)pyrazol-6(2H)-ones” (WARNER-LAMBERT COMPANY, priority 1982, dated 1984).

System: lymphocytic leukemia P388
Test: in vivo lymphocytic leukemia P388 test
Set-up: species or system mice
Conditions: Mus musculus, P388, ip, 720 h, two single doses four days apart, read-out: T/C × 100 (Percent); for response vs control in vivo at 25 mg/kg: P388, Dose 25 mg/kg intraperitoneally; for response vs control in vivo at 50 mg/kg: P388, Dose 50 mg/kg intraperitoneally; for response vs control in vivo at 100 mg/kg: P388, Dose 100 mg/kg intraperitoneally; for response vs control in vivo at 3.12 mg/kg: P388, Dose 3.12 mg/kg intraperitoneally; for response vs control in vivo at 6.25 mg/kg: P388, Dose 6.25 mg/kg intraperitoneally; for response vs control in vivo at 12.5 mg/kg: P388, Dose 12.5 mg/kg intraperitoneally
Experimental: The in vivo lymphocytic leukemia P388 test is carried out by the United States National Cancer Institute. The animals used are either male or female CD2F, mice. There are six to seven animals per test group. The tumor transplant is by intraperitoneal injection of dilute ascitic fluid containing cells of lymphocytic leukemia P388. The test compounds are administered intraperitoneally in two single doses with a four-day interval between doses at various dose levels following tumor inoculation. The animals are weighed and survivors are recorded on a regular basis for 30 days. A ratio of survival time for treated (T)/ control (C) animals is calculated. The criterion for efficacy is T/C x 100 > 125%. The positive control compound in this test is 1,4-dihydroxy-5,8-[bis[[2-[(2-hydroxyethyl)amino]-ethyl]amino]-9,10-anthracene- dione given at dosages ranging from 12.0 to 0.075 mg/kg. See Cancer Chemotherapy Reports, Part 3, 3, 1 (1972) for a comprehensive discussion of the protocol.

| Structure (SMILES) | response vs control in vivo at 25 mg/kg | response vs control in vivo at 50 mg/kg | response vs control in vivo at 6.25 mg/kg | response vs control in vivo at 12.5 mg/kg | other results |
| --- | --- | --- | --- | --- | --- |
| O=C1c2c(O)ccc(O)c2-c2nn(CC(O)CO)c3ccc(NCCNCCO)c1c23 (centres unmarked) [Example 78, 2-(2,3-Dihydroxypropyl)-7,10-dihydroxy-5-[[2-[(2-hydroxyethyl)amino]ethyl]amino]anthra[1,9-cd]pyrazol-6(2H)-one] | 184% | 177% | – | – | response vs control in vivo at 100 mg/kg: 208%; response vs control in vivo at 200 mg/kg (P388, Dose 200 mg/kg intraperitoneally): 218% |
| CN(C)CCNCCn1nc2c3c(c(NCCNCCO)ccc31)C(=O)c1c(O)ccc(O)c1-2 [Example 50, 2-[2-[[2-(Dimethylamino)ethyl]amino]ethyl]-5-[[2-[(2-hydroxyethyl)amino]ethyl]amino]-7,10-dihydroxyanthra[1,9-cd]pyrazol-6(2H)-one] | – | 226% | 188% | – | response vs control in vivo at 3.12 mg/kg: 207% |
| CNCCNc1ccc2c3c(nn2CCNCCO)-c2c(O)ccc(O)c2C(=O)c13 [Example 70, 7,10-Dihydroxy-2-[2-[(2-hydraxyethyl)amino]ethyl]-5-[[2-(methylamino)ethyl]amino]anthra[1,9-cd]pyrazol-6(2H)-one] | – | – | 277% | 277% | – |
| O=C1c2c(O)ccc(O)c2-c2nn(CCCNCCO)c3ccc(NCCNCCO)c1c23 [Example 52, 7,10-Dihydroxy-5-[[2-[(2-hydroxyethyl)amino]ethyl]amino]-2-[3-((2-hydroxyethyi)amino]propyl]anthra[1,9-cd]pyrazol-6(2H)-one] | 183% | – | – | 157% | response vs control in vivo at 100 mg/kg: 259% |
| O=C1c2c(O)c(O)cc(O)c2-c2nn(CCNCCO)c3ccc(NCCNCCO)c1c23 [Example 87, 7,8,10-Trihydroxy-2-[2-[(2-hydroxyethyl)amino]ethyl]-5-[[2-[(2-hydroxyethyl)amino]ethyl]amino]-anthra[1,9-cd]pyrazol-6(2H)-one] | 265% | – | – | 257% | – |
| NCCCNc1ccc2c3c(nn2CCCNCCO)-c2c(O)ccc(O)c2C(=O)c13 [Example 53] | – | 160% | – | – | – |
| O=C1c2c(O)cc(O)c(O)c2-c2nn(CCNCCO)c3ccc(NCCNCCO)c1c23 [Example 86, 7,9,10-Trihydroxy-2-[2-[(2-hydroxyethyl)amino]ethyl]-5-[[2-[(2-hydroxyethyl)amino]lethyl]amino]-anthra[1,9-cd]pyrazol-6(2H)-one] | – | – | – | – | response vs control in vivo at 1.56 mg/kg (P388, Dose 1.56 mg/kg intraperitoneally): 155%; response vs control in vivo at 3.12 mg/kg: 165% |
| NCCCNCCCCNCCCNc1ccc2c3c(nn2CCNCCO)-c2c(O)ccc(O)c2C(=O)c13 [Example 69, 5-[(3-[[4-[(3-Aminopropyl)amino]butyl]amino]propyl]amino]-7,10-dihydroxy-2-[2-[(2-hydroxyethyl)-amino]ethyl]anthra(1,9-cd]pyrazol-6(2H)-one] | – | – | 127% | – | – |
| NCCNCCNc1ccc2c3c(nn2CCNCCO)-c2c(O)ccc(O)c2C(=O)c13 [Example 66, 5-[[2-[(2-Aminoethyl)amino]ethyl]amino]-7,10-dihydroxy-2-[2-[(2-hydroxyethyl)amino]ethyl]anthra[1,9-cd]pyrazol-6(2H)-one] | 221% | – | – | 233% | – |
| O=C1c2c(O)ccc(O)c2-c2nn(CCNCCO)c3ccc(NCCCN(CCO)CCO)c1c23 [Example 68] | 163% | 167% | – | – | response vs control in vivo at 100 mg/kg: 192% |
| CN(CCO)CCn1nc2c3c(c(NCCNCCO)ccc31)C(=O)c1c(O)ccc(O)c1-2 [Example 51, 7,10-Dihydroxy-5-[[2-[(2-hydroxyethyl)amino]ethyl]amino]-2-[2-[(2-hydroxyethyl)-methylamino]ethyl]anthra[1,9-cd]pyrazol-6(2H)-one] | – | – | 182% | 203% | response vs control in vivo at 3.12 mg/kg: 184% |
